According to patent publication US11427567B2, “Imidazolyl pyrimidinylamine compounds as CDK2 inhibitors” (Incyte Corporation, priority 2019, dated 2022):

Target: CDK2/Cyclin E1 (Homo sapiens (Human), UniProt P24941)
Assay: CDK2/Cyclin E1 HTRF enzyme activity assay (Example A)
Type: biochemical
Settings: 1 mM ATP
Experimental: Assays were conducted in white 384-well polystyrene plates in a final reaction volume of 8 μL. […] HTRF signals were read after 1 hour at room temperature on a PHERAstar FS plate reader (BMG Labtech). Data was analyzed with IDBS XLFit and GraphPad Prism 5.0 software using a three or four parameter dose response curve to determine IC50 for each compound.

Row | SMILES | IC50 [nM]
1 | COc1nccc(-n2cnc(-c3nc(NC4CCN(S(C)(=O)=O)CC4)ncc3C(F)(F)F)c2)c1Cl [Example 295, 4-(1-(3-Chloro-2-methoxypyridin-4-yl)-1H-imidazol-4-yl)-N-(1-(methylsulfonyl)piperidin-4-yl)-5-(trifluoromethyl)pyrimidin-2-amine] | ≤ 50
2 | CCN1CCN(Cc2cc(F)c(-n3cnc(-c4nc(N[C@H]5CCN(S(C)(=O)=O)C[C@H]5F)ncc4C(F)(F)F)c3)c(F)c2)CC1 [Example 447, 4-(1-(4-((4-Ethylpiperazin-1-yl)methyl)-2,6-difluorophenyl)-1H-imidazol-4-yl)-N-((3R,45)-3-fluoro-1-(methylsulfonyl)piperidin-4-yl)-5-(trifluoromethyl)pyrimidin-2-amine] | ≤ 50
3 | Cn1cnc(S(=O)(=O)N2CCC(Nc3ncc(C(F)(F)F)c(-c4cn(-c5ccc(C#N)cc5Cl)cn4)n3)CC2)c1 [Example 4, 3-Chloro-4-(4-(2-((1-((1-methyl-1H-imidazol-4-yl)sulfonyl)piperidin-4-yl)amino)-5-(trifluoromethyl)pyrimidin-4-yl)-1H-imidazol-1-yl)benzonitrile] | ≤ 50
4 | CS(=O)(=O)N1CCC(Nc2ncc(C(F)(F)F)c(-c3cn(-c4ccccc4Cl)cn3)n2)CC1 [Example 55, 4-(1-(2-Chlorophenyl)-1H-imidazol-4-yl)-N-(1-(methylsulfonyl)piperidin-4-yl)-5-(trifluoromethyl)pyrimidin-2-amine] | ≤ 50
5 | Cc1nc(-c2nc(NC3CCN(S(C)(=O)=O)CC3)ncc2C(F)(F)F)cn1-c1ccc(N2CCC(N3CCCC3)CC2)cc1F [Example 114, 4-(1-(2-Fluoro-4-(4-(pyrrolidin-1-yl)piperidin-1-yl)-phenyl)-2-methyl-1H-imidazol-4-yl)-N-(1-(methyl-sulfonyl)piperidin-4-yl)-5-(trifluoro-methyl)pyrimidin-2-amine] | ≤ 50
6 | CNCc1ccc(-n2cc(-c3nc(NC4CCN(S(C)(=O)=O)CC4)ncc3C#N)nc2C)c(Cl)c1 [Example 289, 4-(1-(2-Chloro-4-((methylamino)methyl)phenyl)-2-methyl-1H-imidazol-4-yl)-2-((1-(methylsulfonyl)piperidin-4-yl)amino)pyrimidine-5-carbonitrile] | ≤ 50
7 | Cc1nn(C)cc1-c1ccc(-n2cc(-c3nc(NC4CCN(S(C)(=O)=O)CC4)ncc3C(F)(F)F)nc2C)c(F)c1 [Example 127, 4-(1-(4-(1,3-Dimethyl-1H-pyrazol-4-yl)-2-fluorophenyl)-2-methyl-1H-imidazol-4-yl)-N-(1-(methylsulfonyl)piperidin-4-yl)-5-(trifluoromethyl)pyrimidin-2-amine] | ≤ 50
8 | CS(=O)(=O)N1CCC(Nc2ncc(C(F)(F)F)c(-c3cn(-c4ccc(CNCC(F)F)cc4C(F)(F)F)cn3)n2)CC1 [Example 448, 4-(1-(4-(((2,2-Difluoroethyl)amino)methyl)-2-(trifluoromethyl)phenyl)-1H-imidazol-4-yl)-N-(1-(methylsulfonyl)piperidin-4-yl)-5-(trifluoromethyl)pyrimidin-2-amine] | ≤ 50
9 | Cc1ccc(-n2cnc(-c3nc(NC4CCN(S(C)(=O)=O)CC4)ncc3C(F)(F)F)c2)c(C#N)n1 [Example 36, 6-Methyl-3-(4-(2-((1-(methylsulfonyl)piperidin-4-yl)amino)-5-(trifluoromethyl)pyrimidin-4-yl)-1H-imidazol-1-yl)picolinonitrile] | ≤ 50
10 | CCS(=O)(=O)N1CCC(Nc2ncc(C(F)(F)F)c(-c3cn(-c4ccc(CN5CCC5)cc4Cl)cn3)n2)CC1 [Example 229, 4-(1-(4-(Azetidin-1-ylmethyl)-2-chlorophenyl)-1H-imidazol-4-yl)-N-(1-(ethylsulfonyl)piperidin-4-yl)-5-(trifluoromethyl)pyrimidin-2-amine] | ≤ 50
11 | Cn1cc(-c2nc(NC3CCN(S(C)(=O)=O)CC3)ncc2C(F)(F)F)nc1CO [Example 17, (1-Methyl-4-(2-((1-(methylsulfonyl)piperidin-4-yl)amino)-5-(trifluoromethyl)pyrimidin-4-yl)-1H-imidazol-2-yl)methanol] | ≤ 50
12 | Cn1nccc1-c1ccc(-n2cnc(-c3nc(NC4CCN(S(C)(=O)=O)CC4)ncc3C(F)(F)F)c2)c(Cl)c1 [Example 119, 4-(1-(2-Chloro-4-(1-methyl-1H-pyrazol-5-yl)phenyl)-1H-imidazol-4-yl)-N-(1-(methylsulfonyl)piperidin-4-yl)-5-(trifluoromethyl)pyrimidin-2-amine] | ≤ 50
13 | CC(=O)N(C)Cc1ccc(-n2cnc(-c3nc(NC4CCN(S(C)(=O)=O)CC4)ncc3C(F)(F)F)c2)c(Cl)c1 [Example 174, N-(3-Chloro-4-(4-(2-((1-(methylsulfonyl)piperidin-4-yl)amino)-5-(trifluoromethyl)pyrimidin-4-yl)-1H-imidazol-1-yl)benzyl)-N-methylacetamide] | ≤ 50
14 | CN1CCN(Cc2cc(F)c(-n3cnc(-c4nc(NC5CCN(S(C)(=O)=O)CC5)ncc4C(F)(F)F)c3)c(F)c2)CC1 [Example 352, 4-(1-(2,6-Difluoro-4-((4-methylpiperazin-1-yl)methyl)phenyl)-1H-imidazol-4-yl)-N-(1-(methylsulfonyl)piperidin-4-yl)-5-(trifluoromethyl)pyrimidin-2-amine] | ≤ 50
15 | CCC(O)c1cccc(-n2cnc(-c3nc(NC4CCN(S(C)(=O)=O)CC4)ncc3C(F)(F)F)c2)c1Cl (stereo not drawn) [Example 85, 1-(2-Chloro-3-(4-(2-((1-(methylsulfonyl)piperidin-4-yl)amino)-5-(trifluoromethyl)pyrimidin-4-yl)-1H-imidazol-1-yl)phenyl)propan-1-ol] | ≤ 50

Further lines, results first:

Row | IC50 [nM] | SMILES
16 | ≤ 50 | CS(=O)(=O)N1CCC(Nc2ncc(C(F)(F)F)c(-c3cn(-c4cccc(CN5CC[C@H](O)C5)c4Cl)cn3)n2)CC1 [Example 365, (S)-1-(2-Chloro-3-(4-(2-((1-(methylsulfonyl)piperidin-4-yl)amino)-5-(trifluoromethyl)pyrimi-din-4-yl)-1H-imidazol-1-yl)benzyl)pyrrolidin-3-ol]
17 | ≤ 50 | CNCc1ccc(-n2cnc(-c3nc(NC4CCN(S(C)(=O)=O)CC4)ncc3C(F)(F)F)c2)c(C#N)c1 [Example 249, 5-((Methylamino)methyl)-2-(4-(2-((1-(methylsulfonyl)piperidin-4-yl)amino)-5-(trifluoromethyl)pyrimidin-4-yl)-1H-imidazol-1-yl)benzonitrile]
18 | ≤ 50 | CC(C)NCc1ccc(-n2cnc(-c3nc(NC4CCN(S(C)(=O)=O)CC4)ncc3C(F)(F)F)c2)c(C#N)c1 [Example 340, 5-((Isopropylamino)methyl)-2-(4-(2-((1-(methylsulfonyl)piperidin-4-yl)amino)-5-(trifluoromethyl)pyrimidin-4-yl)-1H-imidazol-1-yl)benzonitrile]
19 | ≤ 50 | CCN1CCN(c2nccc(-n3cnc(-c4nc(NC5CCN(S(C)(=O)=O)CC5)ncc4C(F)(F)F)c3)c2C#N)CC1 [Example 315, 2-(4-Ethylpiperazin-1-yl)-4-(4-(2-((1-(methylsulfonyl)piperidin-4-yl)amino)-5-(trifluoromethyl)pyrimidin-4-yl)-1H-imidazol-1-yl)nicotinonitrile]
20 | ≤ 50 | CCS(=O)(=O)N1CCC(Nc2ncc(C(F)(F)F)c(-c3cn(CC(F)F)cn3)n2)CC1 [Example 328, 4-(1-(2,2-Difluoroethyl)-1H-imidazol-4-yl)-N-(1-(ethylsulfonyl)piperidin-4-yl)-5-(trifluoromethyl)pyrimidin-2-amine]
21 | ≤ 50 | Cc1nc(-c2nc(NC3CCN(S(C)(=O)=O)CC3)ncc2C(F)(F)F)cn1-c1ccc(C2CN(CCO)C2)cc1F [Example 420, 2-(3-(3-Fluoro-4-(2-methyl-4-(2-((1-(methylsulfonyl)piperidin-4-yl)amino)-5-(trifluoromethyl)pyrimidin-4-yl)-1H-imidazol-1-yl)phenyl)azetidin-1-yl)ethan-1-ol]
22 | ≤ 50 | Cc1nccc(-n2cnc(-c3nc(NC4CCN(S(C)(=O)=O)CC4)ncc3C(F)(F)F)c2)c1Cl [Example 296, 4-(1-(3-Chloro-2-methylpyridin-4-yl)-1H-imidazol-4-yl)-N-(1-(methylsulfonyl)piperidin-4-yl)-5-(trifluoromethyl)pyrimidin-2-amine]
23 | ≤ 50 | Cc1nnn(C)c1-c1ccc(-n2cnc(-c3nc(NC4CCN(S(C)(=O)=O)CC4)ncc3C(F)(F)F)c2)c(Cl)c1 [Example 120, 4-(1-(2-Chloro-4-(1,4-dimethyl-1H-1,2,3-triazol-5-yl)phenyl)-1H-imidazol-4-yl)-N-(1-(methylsulfonyl)-piperidin-4-yl)-5-(trifluoromethyl)-pyrimidin-2-amine]
24 | ≤ 50 | Cc1nc(-c2nc(N[C@H]3CCN(S(C)(=O)=O)C[C@H]3F)ncc2C(F)(F)F)cn1-c1ccnc(C#N)c1F [Example 310, 3-Fluoro-4-(4-(2-(((3R,4S)-3-fluoro-1-(methylsulfonyl)piperidin-4-yl)amino)-5-(trifluoromethyl)pyrimidin-4-yl)-2-methyl-1H-imidazol-1-yl)picolinonitrile]
25 | ≤ 50 | CN(C)CCNc1ccc(-n2cnc(-c3nc(NC4CCN(S(C)(=O)=O)CC4)ncc3C(F)(F)F)c2)c(C#N)c1 [Example 432, 5-((2-(Dimethylamino)ethyl)amino)-2-(4-(2-((1-(methylsulfonyl)piperidin-4-yl)amino)-5-(trifluoromethyl)pyrimidin-4-yl)-1H-imidazol-1-yl)benzonitrile]
26 | ≤ 50 | CN(C)Cc1ccc(-n2cnc(-c3nc(N[C@H]4CCN(S(C)(=O)=O)C[C@H]4F)ncc3C(F)(F)F)c2)c(Cl)c1 [Example 183, 4-(1-(2-Chloro-4-((dimethylamino)methyl)phenyl)-1H-imidazol-4-yl)-N-((3R,4S)-3-fluoro-1-(methylsulfonyl)piperidin-4-yl)-5-(trifluoromethyl)pyrimidin-2-amine]
27 | ≤ 50 | Cc1nc(-c2nc(NC3CCN(S(C)(=O)=O)CC3)ncc2C(F)(F)F)cn1-c1ccc(CN2CC(O)C2)cc1F [Example 355, 1-(3-Fluoro-4-(2-methyl-4-(2-((1-(methylsulfonyl)piperidin-4-yl)amino)-5-(trifluoromethyl)pyrimidin-4-yl)-1H-imidazol-1-yl)benzyl)azetidin-3-ol]
